Experimental data as given in patent EP0025288A1, “Derivatives of monic acid, processes for their preparation, compositions containing them and their preparation” (priority 1979, dated 1981).

Experiments:
Assay type in all cases: cell-based
P mirabilis 889 = test: MIC, human bacteria, serial dilution in nutrient agar; settings: nutrient agar containing 5% 'chocolated' horse blood
M. suipneumoniae JF 435 = test: MIC, anti-mycoplasmal, Friis broth solidified with 0.9% agarose; settings: inoculum 10^3 to 10^5 C.F.U., 6 days incubation at 37°C
M. suipneumoniae UCD 1 = test: as above; settings: inoculum 10^3 to 10^5 C.F.U., 6 days incubation at 37°C
E coli ESS = test: MIC, human bacteria, serial dilution in nutrient agar; settings: nutrient agar containing 5% 'chocolated' horse blood
[1] = tested on: M. suipneumoniae NCTC 10110; test: MIC, anti-mycoplasmal, Friis broth solidified with 0.9% agarose; settings: inoculum 10^3 to 10^5 C.F.U., 6 days incubation at 37°C
Strep agalactiae SPA1 = test: MIC, veterinary bacteria; settings: veterinary bacteria (Table 2)
Strep pyogenes A 64/848 = test: MIC, human bacteria, serial dilution in nutrient agar; settings: nutrient agar containing 5% 'chocolated' horse blood
[2] = tested on: M. bovigenitalium ATCC 14173; test: MIC, anti-mycoplasmal, Friis broth solidified with 0.9% agarose; settings: inoculum 10^3 to 10^5 C.F.U., 6 days incubation at 37°C
M. suipneumoniae TAM 6N = test: as above; settings: inoculum 10^3 to 10^5 C.F.U., 6 days incubation at 37°C
M. suipneumoniae LABER = test: as above; settings: inoculum 10^3 to 10^5 C.F.U., 6 days incubation at 37°C
K aerogenes A = test: MIC, human bacteria, serial dilution in nutrient agar; settings: nutrient agar containing 5% 'chocolated' horse blood
Past Haemolytica PA5 = test: MIC, veterinary bacteria; settings: veterinary bacteria (Table 2)
Bacillus subtilis 6633 = test: MIC, human bacteria, serial dilution in nutrient agar; settings: nutrient agar containing 5% 'chocolated' horse blood
Staph aureus Oxford [3] = test: as above; settings: nutrient agar containing 5% 'chocolated' horse blood
Past multocida PA2 = test: MIC, veterinary bacteria; settings: veterinary bacteria (Table 2)
[4] = tested on: Haemophilus influenzae Wy21; test: MIC, human bacteria, serial dilution in nutrient agar; settings: nutrient agar containing 5% 'chocolated' horse blood
Strep pneumoniae CN33 = test: as above; settings: nutrient agar containing 5% 'chocolated' horse blood
M. suipneumoniae HK(2) = test: MIC, anti-mycoplasmal, Friis broth solidified with 0.9% agarose; settings: inoculum 10^3 to 10^5 C.F.U., 6 days incubation at 37°C
[5] = tested on: M. suipneumoniae J2206/183b; test: as above; settings: inoculum 10^3 to 10^5 C.F.U., 6 days incubation at 37°C
[6] = tested on: M. suipneumoniae ATCC 25095; test: as above; settings: inoculum 10^3 to 10^5 C.F.U., 6 days incubation at 37°C
S dublin S7 = test: MIC, veterinary bacteria; settings: veterinary bacteria (Table 2)
M. suipneumoniae NB12 = test: MIC, anti-mycoplasmal, Friis broth solidified with 0.9% agarose; settings: inoculum 10^3 to 10^5 C.F.U., 6 days incubation at 37°C
[7] = tested on: Corynebacterium pyogenes CY1; test: MIC, veterinary bacteria; settings: veterinary bacteria (Table 2)
[8] = tested on: Erysipelothrix rhusiopathiae NCTC 8163; test: MIC, veterinary bacteria; settings: veterinary bacteria (Table 2)
M. gallisepticum S6 = test: MIC, anti-mycoplasmal, Friis broth solidified with 0.9% agarose; settings: inoculum 10^3 to 10^5 C.F.U., 6 days incubation at 37°C
[9] = tested on: Staph aureus 152 (pen sens); test: MIC, veterinary bacteria; settings: veterinary bacteria (Table 2)
[10] = tested on: Neisseria catarrhalis 1502; test: MIC, human bacteria, serial dilution in nutrient agar; settings: Neisseria catarrhalis 1502 (footnote a); nutrient agar containing 5% 'chocolated' horse blood
Bord bronchiseptica BO8 = test: MIC, veterinary bacteria; settings: veterinary bacteria (Table 2)
Strep pyogenes B 2788 = test: MIC, human bacteria, serial dilution in nutrient agar; settings: nutrient agar containing 5% 'chocolated' horse blood
M. hyorhinis ATCC 25021 = test: MIC, anti-mycoplasmal, Friis broth solidified with 0.9% agarose; settings: inoculum 10^3 to 10^5 C.F.U., 6 days incubation at 37°C
S typhimurium S18 = test: MIC, veterinary bacteria; settings: veterinary bacteria (Table 2)
[11] = tested on: M. suipneumoniae PW/C/210; test: MIC, anti-mycoplasmal, Friis broth solidified with 0.9% agarose; settings: inoculum 10^3 to 10^5 C.F.U., 6 days incubation at 37°C
E coli NCTC 10418 [12] = test: MIC, human bacteria, serial dilution in nutrient agar; settings: nutrient agar containing 5% 'chocolated' horse blood
Ps aeruginosa 10662 = test: as above; settings: nutrient agar containing 5% 'chocolated' horse blood
M. bovis NCTC 10131 = test: microbe, parasite or virus in culture; settings: M. bovis NCTC 10131; inoculum 10^3 to 10^5 C.F.U., 6 days incubation at 37°C
M. suipneumoniae Str. 11 = test: MIC, anti-mycoplasmal, Friis broth solidified with 0.9% agarose; settings: inoculum 10^3 to 10^5 C.F.U., 6 days incubation at 37°C
Strep uberis SPU1 = test: MIC, veterinary bacteria; settings: veterinary bacteria (Table 2)
M. dispar NCTC 10125 = test: MIC, anti-mycoplasmal, Friis broth solidified with 0.9% agarose; settings: inoculum 10^3 to 10^5 C.F.U., 6 days incubation at 37°C
[13] = tested on: Staph aureus B4 (pen resis); test: MIC, veterinary bacteria; settings: veterinary bacteria (Table 2)
Staph aureus Oxford [14] = test: MIC, veterinary bacteria; settings: veterinary bacteria (Table 2)
Strep pyogenes C 2761 = test: MIC, human bacteria, serial dilution in nutrient agar; settings: nutrient agar containing 5% 'chocolated' horse blood
Past multocida PA1 = test: MIC, veterinary bacteria; settings: veterinary bacteria (Table 2)
Staph aureus Russell = test: MIC, human bacteria, serial dilution in nutrient agar; settings: nutrient agar containing 5% 'chocolated' horse blood
E coli E1 = test: MIC, veterinary bacteria; settings: veterinary bacteria (Table 2)
Staph aureus W2827 = test: MIC, human bacteria, serial dilution in nutrient agar; settings: nutrient agar containing 5% 'chocolated' horse blood
Strep faecalis I = test: as above; settings: nutrient agar containing 5% 'chocolated' horse blood
[15] = tested on: Pasteurella multocida 1633; test: as above; settings: nutrient agar containing 5% 'chocolated' horse blood
Strep dysgalaciae SPD1 = test: MIC, veterinary bacteria; settings: veterinary bacteria (Table 2)
[16] = tested on: M. hyosynoviae ATCC 25591; test: MIC, anti-mycoplasmal, Friis broth solidified with 0.9% agarose; settings: inoculum 10^3 to 10^5 C.F.U., 6 days incubation at 37°C
M. suipneumoniae MS 16 = test: as above; settings: inoculum 10^3 to 10^5 C.F.U., 6 days incubation at 37°C
Bord bronchisptica BO9 = test: MIC, veterinary bacteria; settings: veterinary bacteria (Table 2)
[17] = tested on: Strep suis (group D) SPS11; test: MIC, veterinary bacteria; settings: veterinary bacteria (Table 2)
M. hyorhinis ATCC 23234 = test: MIC, anti-mycoplasmal, Friis broth solidified with 0.9% agarose; settings: inoculum 10^3 to 10^5 C.F.U., 6 days incubation at 37°C
E coli NCTC 10418 [18] = test: MIC, veterinary bacteria; settings: veterinary bacteria (Table 2)
[19] = tested on: Haemophilus influenzae Q1; test: MIC, human bacteria, serial dilution in nutrient agar; settings: nutrient agar containing 5% 'chocolated' horse blood
M. pneumoniae ATCC 15492 = test: MIC, anti-mycoplasmal, Friis broth solidified with 0.9% agarose; settings: inoculum 10^3 to 10^5 C.F.U., 6 days incubation at 37°C

5-Acetylpentyl monate A [Example 7]
MIC (P mirabilis 889): >100 µm/ml
in vitro MIC (M. suipneumoniae JF 435): 0.25 µg/mL
in vitro MIC (M. suipneumoniae UCD 1): 0.5 µg/mL
MIC (E coli ESS): 0.5 µm/ml
in vitro MIC [1]: 0.5 µg/mL
MIC (Strep agalactiae SPA1): .625 µg/mL
MIC (Strep pyogenes A 64/848): 0.5 µm/ml
in vitro MIC [2]: 0.025 µg/mL
in vitro MIC (M. suipneumoniae TAM 6N): 0.5 µg/mL
in vitro MIC (M. suipneumoniae LABER): 0.25 µg/mL
MIC (K aerogenes A): >100 µm/ml
MIC (Past Haemolytica PA5): 5 µg/mL
MIC (Bacillus subtilis 6633): 0.5 µm/ml
MIC (Staph aureus Oxford [3]): 1.0 µm/ml
MIC (Past multocida PA2): .312 µg/mL
MIC [4]: 0.1 µm/ml
MIC (Strep pneumoniae CN33): 0.5 µm/ml
in vitro MIC (M. suipneumoniae HK(2)): 0.5 µg/mL
in vitro MIC [5]: 0.5 µg/mL
in vitro MIC [6]: 0.25 µg/mL
MIC (S dublin S7): >80 µg/mL
in vitro MIC (M. suipneumoniae NB12): 0.25 µg/mL
MIC [7]: >80 µg/mL
MIC [8]: 40 µg/mL
in vitro MIC (M. gallisepticum S6): 2.5 µg/mL
MIC [9]: .625 µg/mL
MIC [10]: ^a0.5 µm/ml
MIC (Bord bronchiseptica BO8): 40 µg/mL
MIC (Strep pyogenes B 2788): 2.5 µm/ml
in vitro MIC (M. hyorhinis ATCC 25021): 0.1 µg/mL
MIC (S typhimurium S18): >80 µg/mL
in vitro MIC [11]: 0.25 µg/mL
MIC (E coli NCTC 10418 [12]): >100 µm/ml
MIC (Ps aeruginosa 10662): >100 µm/ml
in vitro MIC (M. bovis NCTC 10131): <0.01 µg/mL
in vitro MIC (M. suipneumoniae Str. 11): 0.25 µg/mL
MIC (Strep uberis SPU1): .156 µg/mL
in vitro MIC (M. dispar NCTC 10125): 0.05 µg/mL
MIC [13]: .625 µg/mL
MIC (Staph aureus Oxford [14]): .625 µg/mL
MIC (Strep pyogenes C 2761): 2.5 µm/ml
MIC (Past multocida PA1): .625 µg/mL
MIC (Staph aureus Russell): 1.0 µm/ml
MIC (E coli E1): >80 µg/mL
MIC (Staph aureus W2827): 2.5 µm/ml
MIC (Strep faecalis I): >100 µm/ml
MIC [15]: 0.5 µm/ml
MIC (Strep dysgalaciae SPD1): .312 µg/mL
in vitro MIC [16]: 0.025 µg/mL
in vitro MIC (M. suipneumoniae MS 16): 0.25 µg/mL
MIC (Bord bronchisptica BO9): 5 µg/mL
MIC [17]: 5 µg/mL
in vitro MIC (M. hyorhinis ATCC 23234): 0.1 µg/mL
MIC (E coli NCTC 10418 [18]): 80 µg/mL
MIC [19]: 0.2 µm/ml
in vitro MIC (M. pneumoniae ATCC 15492): 0.5 µg/mL
